Test system: hepatitis B virus
Assay: Anti-viral effect on hepatitis B virus in SCID mice injected with patient serum, plasma HBsAg by ELISA
Format: in vivo
Procedure: The serum of the patient infected with hepatitis B virus was collected and injected into the SCID mice. Interferon-alpha, Interferon-alpha-containing emulsions and untreated groups of mice were divided to evaluate antiviral bioactivity of inteferon. Different formulations were administered at the interferon-alpha dose of 1000 units/g body weight of mice. Three days later, blood was collected and the concentrations of hepatitis B virus surface antigen (HBsAg) in plasma were determined by ELISA method.

**Q.** Which “anti-viral effect compared to the untreated control” value (p<0.05) does the source give for Interferon-alpha here?
**A.** The value was “statistically significant anti-viral effect”.

**Q.** What about the “relative HBsAg ratio to the untreated control” value (plasma, three days after 1000 units/g body weight, untreated defined as 1.0) of the same substance?
**A.** Its value is 0.29±0.4.
